Read-outs that look alike come from different tables or passages of the source.
Key:
[1] = oral solution of 650 mg, four male subjects; cited from earlier work
[2] = cited from earlier work
[3] = cited from earlier work; remark: listed apart in the source
[4] = cited from earlier work; remark: listed apart in the source
[5] = Pharmacokinetic studies after oral administration of ASA (cited Dressman et al.); conditions: extrapolated from linear pharmacokinetics, dose not stated
[6] = after oral administration of ASA
[7] = metabolite after oral administration of ASA

SMILES: CC(=O)Oc1ccccc1C(=O)O [aspirin, acetylsalicylic acid]
- share of the dose that reached the peripheral circulation intact (AUC oral vs intravenous) [1]: 68%
- elimination half-life [2, 6]: 0.25 to 0.333 h
- time to peak plasma levels [2, 6]: about 20 minutes
- pharmacokinetic behavior over dosage range ([2]; dosage range from 30-400 mg): linear
- loss or inactivation of the oral dosage due to the first pass effect in the gut and liver ([3]; oral administration): approximately ⅔
- fraction of the oral dose that is bioavailable ([3]; taken orally, first pass effect): about one to two-thirds
- vascular events prevented ([4]; Dutch TIA Study, any dose above 30 mg daily, oral): 13%
- increase of major gastrointestinal and extracranial bleeds ([4]; oral aspirin, studies used dosages of 325 mg): over 50%

SMILES: O=C(O)c1ccccc1O [salicylate, salicylic acid]
- elimination half-life [2, 7]: 2 to 3 h
- period over which plasma levels increase following administration of ASA [2, 7]: about 45 minutes
- expected peak circulating plasma level [5]: ~10 µg/mL
